# Source: patent publication US20150017667A1, “MEANS AND METHODS FOR ASSESSING LIVER DISORDERS” (BASF SE, priority 2012, published 2015)
# Marks after values point to notes of the source that are not given here.
# System: male rats
# Experiment: 28-day repeated dose oral toxicity study (OECD 407) with GC-MS/LC-MS plasma metabolite profiling, male rats
# Assay type: in vivo, rat
# Settings: plasma
# Text: Drinking water was also offered ad libitum.
# The samples were centrifuged for generation of plasma.
smiles,measurement,setting,value
CC(C)(Oc1ccc(CCNC(=O)c2ccc(Cl)cc2)cc1)C(=O)O [Bezafibrate],"3-O-Methylsphingosine (d18:1), ratio versus control",day 7,0.48*
same,"5-O-Methylsphingosine (d18:1), ratio versus control",day 7,0.4*
same,"14-Methylhexadecanoic acid, ratio versus control",day 7,0.93
same,"16-Methylheptadecanoic acid, ratio versus control",day 7,0.29*
same,"17-Methyloctadecanoic acid, ratio versus control",day 7,0.24*
same,"Arachidonic acid (C20:cis[5,8,11,14]4), ratio versus control",day 7,0.26*
same,"Arginine, ratio versus control",day 7,0.65*
same,"Ascorbic acid, ratio versus control",day 7,1.54*
same,"Behenic acid (C22:0), ratio versus control",day 7,0.44*
same,"Campesterol, ratio versus control",day 7,0.24*
same,"Cholesterol, ratio versus control",day 7,0.37*
same,"Choline plasmalogen (C18,C20:4), ratio versus control",day 7,0.47*
same,"Choline plasmalogen No 01, ratio versus control",day 7,0.87*
same,"Choline plasmalogen No 02, ratio versus control",day 7,0.46*
same,"Choline plasmalogen No 03, ratio versus control",day 7,0.49*
same,"Coenzyme Q10, ratio versus control",day 7,0.46*
same,"Cytosine, ratio versus control",day 7,0.89*
same,"Docosapentaenoic acid (C22:cis[7,10,13,16,19]5), ratio versus control",day 7,0.43*
same,"Eicosanoic acid (C20:0), ratio versus control",day 7,0.51*
same,"Glucose, ratio versus control",day 7,1.54*
same,"Glycine, ratio versus control",day 7,1.79*
same,"Heptadecanoic acid (C17:0), ratio versus control",day 7,0.69*
same,"Isopalmitic acid (C16:0), ratio versus control",day 7,0.53*
same,"Kynurenic acid, ratio versus control",day 7,1.89*
same,"Lignoceric acid (C24:0), ratio versus control",day 7,0.54*
same,"Lysophosphatidylcholine (C17:0), ratio versus control",day 7,0.51*
same,"Lysophosphatidylcholine (C18:0), ratio versus control",day 7,0.79*
same,"Lysophosphatidylcholine (C18:2), ratio versus control",day 7,1.4*
same,"Lysophosphatidylethanolamine (C22:0), ratio versus control",day 7,0.27*
same,"Lysophosphatidylethanolamine (C22:5), ratio versus control",day 7,1.59*
same,"Mannose, ratio versus control",day 7,1.32*
same,"Metanephrine, ratio versus control",day 7,0.5
same,"Nervonic acid (C24:cis[15]1), ratio versus control",day 7,0.4*
same,"Normetanephrine, ratio versus control",day 7,0.6*
same,"Pantothenic acid, ratio versus control",day 7,2.36*
same,"Phosphatidylcholine (C18:0,C20:3), ratio versus control",day 7,0.48*
same,"Phosphatidylcholine (C18:0,C20:4), ratio versus control",day 7,0.78*
same,"Phosphatidylcholine (C18:2,C20:4), ratio versus control",day 7,0.65*
same,"Phosphatidylcholine No 02, ratio versus control",day 7,0.35*
same,"Phosphatidylcholine No 04, ratio versus control",day 7,0.23*
same,"Sphingomyelin (d18:1,C16:0), ratio versus control",day 7,0.88*
same,"Sphingomyelin (d18:2,C16:0), ratio versus control",day 7,0.72*
same,"Stearic acid (C18:0), ratio versus control",day 7,0.42*
same,"Tricosanoic acid (C23:0), ratio versus control",day 7,0.5*
same,"beta-Sitosterol, ratio versus control",day 7,0.24*
same,"dihomo-gamma-Linolenic acid (C20:cis[8,11,14]3), ratio versus control",day 7,3.63*
same,"erythro-Sphingosine, ratio versus control",day 7,0.49*
same,"myo-Inositol-2-phosphate, lipid fraction, ratio versus control",day 7,0.28*
same,"threo-Sphingosine, ratio versus control",day 7,0.56*
same,"trans-4-Hydroxyproline, ratio versus control",day 7,0.71*
same,"Lysophosphatidylcholine (C18:1), ratio versus control",day 7 (Table 3a),1.44*
same,"Phosphatidylcholine (C16:0,C20:5), ratio versus control",day 7 (Table 3a),1.4*
same,"Docosahexaenoic acid (C22:cis[4,7,10,13,16,19]6), ratio versus control",day 7 (Table 3b),0.25*
same,"Phosphatidylcholine (C18:0,C22:6), ratio versus control",day 7 (Table 3b),0.36*
same,"alpha-Tocopherol, ratio versus control",day 7 (Table 3b),0.75*
same,"3-O-Methylsphingosine (d18:1), ratio versus control",day 14,0.44*
same,"5-O-Methylsphingosine (d18:1), ratio versus control",day 14,0.41*
same,"14-Methylhexadecanoic acid, ratio versus control",day 14,0.89*
same,"16-Methylheptadecanoic acid, ratio versus control",day 14,0.25*
same,"17-Methyloctadecanoic acid, ratio versus control",day 14,0.24*
same,"Arachidonic acid (C20:cis[5,8,11,14]4), ratio versus control",day 14,0.31*
same,"Arginine, ratio versus control",day 14,0.59*
same,"Ascorbic acid, ratio versus control",day 14,1.32*
same,"Behenic acid (C22:0), ratio versus control",day 14,0.58*
same,"Campesterol, ratio versus control",day 14,0.31*
same,"Cholesterol, ratio versus control",day 14,0.48*
same,"Choline plasmalogen (C18,C20:4), ratio versus control",day 14,0.5*
same,"Choline plasmalogen No 01, ratio versus control",day 14,0.82*
same,"Choline plasmalogen No 02, ratio versus control",day 14,0.52*
same,"Choline plasmalogen No 03, ratio versus control",day 14,0.63*
same,"Coenzyme Q10, ratio versus control",day 14,0.58*
same,"Cytosine, ratio versus control",day 14,0.84
same,"Docosapentaenoic acid (C22:cis[7,10,13,16,19]5), ratio versus control",day 14,0.62*
same,"Eicosanoic acid (C20:0), ratio versus control",day 14,0.67*
same,"Glucose, ratio versus control",day 14,1.29*
same,"Glycine, ratio versus control",day 14,1.58*
same,"Heptadecanoic acid (C17:0), ratio versus control",day 14,0.83*
same,"Isopalmitic acid (C16:0), ratio versus control",day 14,0.53*
same,"Kynurenic acid, ratio versus control",day 14,5.15*
same,"Lignoceric acid (C24:0), ratio versus control",day 14,0.44*
same,"Lysophosphatidylcholine (C17:0), ratio versus control",day 14,0.51*
same,"Lysophosphatidylcholine (C18:0), ratio versus control",day 14,0.85*
same,"Lysophosphatidylcholine (C18:2), ratio versus control",day 14,1.68*
same,"Lysophosphatidylethanolamine (C22:0), ratio versus control",day 14,0.32*
same,"Lysophosphatidylethanolamine (C22:5), ratio versus control",day 14,1.9*
same,"Mannose, ratio versus control",day 14,1.34*
same,"Metanephrine, ratio versus control",day 14,0.44*
same,"Nervonic acid (C24:cis[15]1), ratio versus control",day 14,0.44*
same,"Normetanephrine, ratio versus control",day 14,0.5*
same,"Pantothenic acid, ratio versus control",day 14,2.3*
same,"Phosphatidylcholine (C18:0,C20:3), ratio versus control",day 14,0.56*
same,"Phosphatidylcholine (C18:0,C20:4), ratio versus control",day 14,0.78
same,"Phosphatidylcholine (C18:2,C20:4), ratio versus control",day 14,0.66*
same,"Phosphatidylcholine No 02, ratio versus control",day 14,0.37*
same,"Phosphatidylcholine No 04, ratio versus control",day 14,0.25*
same,"Sphingomyelin (d18:1,C16:0), ratio versus control",day 14,0.83*
same,"Sphingomyelin (d18:2,C16:0), ratio versus control",day 14,0.67*
same,"Stearic acid (C18:0), ratio versus control",day 14,0.45*
same,"Tricosanoic acid (C23:0), ratio versus control",day 14,0.72*
same,"beta-Sitosterol, ratio versus control",day 14,0.3*
same,"dihomo-gamma-Linolenic acid (C20:cis[8,11,14]3), ratio versus control",day 14,4.4*
same,"erythro-Sphingosine, ratio versus control",day 14,0.4*
same,"myo-Inositol-2-phosphate, lipid fraction, ratio versus control",day 14,0.37*
same,"threo-Sphingosine, ratio versus control",day 14,0.52*
same,"trans-4-Hydroxyproline, ratio versus control",day 14,0.57*
same,"Lysophosphatidylcholine (C18:1), ratio versus control",day 14 (Table 3a),1.92*
same,"Phosphatidylcholine (C16:0,C20:5), ratio versus control",day 14 (Table 3a),1.4*
same,"Docosahexaenoic acid (C22:cis[4,7,10,13,16,19]6), ratio versus control",day 14 (Table 3b),0.25*
same,"Phosphatidylcholine (C18:0,C22:6), ratio versus control",day 14 (Table 3b),0.33*
same,"alpha-Tocopherol, ratio versus control",day 14 (Table 3b),0.77*
same,"3-O-Methylsphingosine (d18:1), ratio versus control",day 28,0.39*
same,"5-O-Methylsphingosine (d18:1), ratio versus control",day 28,0.4*
same,"14-Methylhexadecanoic acid, ratio versus control",day 28,0.83*
same,"16-Methylheptadecanoic acid, ratio versus control",day 28,0.16*
same,"17-Methyloctadecanoic acid, ratio versus control",day 28,0.17*
same,"Arachidonic acid (C20:cis[5,8,11,14]4), ratio versus control",day 28,0.29*
same,"Arginine, ratio versus control",day 28,0.62*
same,"Ascorbic acid, ratio versus control",day 28,1.55*
same,"Behenic acid (C22:0), ratio versus control",day 28,0.51*
same,"Campesterol, ratio versus control",day 28,0.21*
same,"Cholesterol, ratio versus control",day 28,0.43*
same,"Choline plasmalogen (C18,C20:4), ratio versus control",day 28,0.51*
same,"Choline plasmalogen No 01, ratio versus control",day 28,0.55*
same,"Choline plasmalogen No 02, ratio versus control",day 28,0.49*
same,"Choline plasmalogen No 03, ratio versus control",day 28,0.54*
same,"Coenzyme Q10, ratio versus control",day 28,0.48*
same,"Cytosine, ratio versus control",day 28,0.79*
same,"Docosapentaenoic acid (C22:cis[7,10,13,16,19]5), ratio versus control",day 28,0.31*
same,"Eicosanoic acid (C20:0), ratio versus control",day 28,0.52*
same,"Glucose, ratio versus control",day 28,1.32*
same,"Glycine, ratio versus control",day 28,1.95*
same,"Heptadecanoic acid (C17:0), ratio versus control",day 28,0.52*
same,"Isopalmitic acid (C16:0), ratio versus control",day 28,0.47*
same,"Kynurenic acid, ratio versus control",day 28,2.04*
same,"Lignoceric acid (C24:0), ratio versus control",day 28,0.44*
same,"Lysophosphatidylcholine (C17:0), ratio versus control",day 28,0.36*
same,"Lysophosphatidylcholine (C18:0), ratio versus control",day 28,0.86*
same,"Lysophosphatidylcholine (C18:2), ratio versus control",day 28,1.33*
same,"Lysophosphatidylethanolamine (C22:0), ratio versus control",day 28,0.18*
same,"Lysophosphatidylethanolamine (C22:5), ratio versus control",day 28,1.29*
same,"Mannose, ratio versus control",day 28,1.23*
same,"Metanephrine, ratio versus control",day 28,0.55*
same,"Nervonic acid (C24:cis[15]1), ratio versus control",day 28,0.39*
same,"Normetanephrine, ratio versus control",day 28,0.78*
same,"Pantothenic acid, ratio versus control",day 28,3.51*
same,"Phosphatidylcholine (C18:0,C20:3), ratio versus control",day 28,0.57*
same,"Phosphatidylcholine (C18:0,C20:4), ratio versus control",day 28,0.75*
same,"Phosphatidylcholine (C18:2,C20:4), ratio versus control",day 28,0.56*
same,"Phosphatidylcholine No 02, ratio versus control",day 28,0.47*
same,"Phosphatidylcholine No 04, ratio versus control",day 28,0.24*
same,"Sphingomyelin (d18:1,C16:0), ratio versus control",day 28,0.71*
same,"Sphingomyelin (d18:2,C16:0), ratio versus control",day 28,0.49*
same,"Stearic acid (C18:0), ratio versus control",day 28,0.39*
same,"Tricosanoic acid (C23:0), ratio versus control",day 28,0.54*
same,"beta-Sitosterol, ratio versus control",day 28,0.2*
same,"dihomo-gamma-Linolenic acid (C20:cis[8,11,14]3), ratio versus control",day 28,3.24*
same,"erythro-Sphingosine, ratio versus control",day 28,0.43*
same,"myo-Inositol-2-phosphate, lipid fraction, ratio versus control",day 28,0.38*
same,"threo-Sphingosine, ratio versus control",day 28,0.55*
same,"trans-4-Hydroxyproline, ratio versus control",day 28,0.72*
same,"Lysophosphatidylcholine (C18:1), ratio versus control",day 28 (Table 3a),1.22*
same,"Phosphatidylcholine (C16:0,C20:5), ratio versus control",day 28 (Table 3a),1.21*
same,"Docosahexaenoic acid (C22:cis[4,7,10,13,16,19]6), ratio versus control",day 28 (Table 3b),0.14*
same,"Phosphatidylcholine (C18:0,C22:6), ratio versus control",day 28 (Table 3b),0.27*
same,"alpha-Tocopherol, ratio versus control",day 28 (Table 3b),0.64*
